Active and inactive are the calls of the source.
Legend:
Tumor necrosis factor = Tumor necrosis factor (Homo sapiens, UniProt P01375); test: analog potency on TNFa NF-kB signaling – cell-based, revised, SAR follow-up (AID 2337); type: functional
HEK293 = test: cells; details: Homo sapiens;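 note: cells exposed to compound for 14 hours overnight before viability readout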
Interleukin-8 = Interleukin-8 (Homo sapiens, UniProt P10145); test: SAR analysis of tumor necrosis factor alpha (TNF-alpha) induced IL-8 secretion in MCF-7/NOD1 cells. [Related pubchem assays (depositor defined):AID1575, AID2250, AID2260]; type: functional, cell-based
Vero [1] = test: antiviral protection of cells from WNV – synthesized analogs, SAR follow-up (AID 2238); type: functional, cell-based; details: Chlorocebus sabaeus
[2] = A Cell Based Assay for the Identification of Probe candidate Compounds with Anti- Venezuelan Equine Encephalitis virus. [Related pubchem assays: 2409, 2419, 1621, 2238, 2405, 2024, 2065, 2402, 2414, 1635, 1650, 2244 ]; type: functional
Vero [3] = test: inhibition of WNV-induced cytopathic effect – cell-based, CPE readout (AID 1621); type: functional; details: Chlorocebus sabaeus
Vero [4] = test: host cell viability loss, Vero E6 – synthesized analogs, cytotoxicity control for West Nile virus antiviral project, SAR follow-up (AID 2244); type: functional; details: Chlorocebus sabaeus
Vero [5] = test: antiviral activity against WNV, CPE read-out – cell-based (AID 2419); type: functional; details: Chlorocebus sabaeus
Vero [6] = test: Vero cell viability after compound exposure – synthesized analogs, set II, cytotoxicity control for West Nile virus antiviral project, SAR follow-up (AID 2402); type: functional; details: Chlorocebus sabaeus
Vero [7] = test: Vero 76 cell viability after compound exposure – Vero 76 cells, synthesized analogs, cytotoxicity control for West Nile virus antiviral project, SAR follow-up (AID 2414); type: functional; details: Chlorocebus sabaeus
[8] = target: Neuropeptide Y receptor type 2 (Homo sapiens, UniProt P49146); type: functional, cell-based;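 note: HEK293 cells expressing the receptor and a CNG channel; stimulus was NPY near EC95 followed by isoproterenol to raise cAMP; antagonist potency measured as restoring cAMP signal that NPY suppresses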
[9] = target: Neuropeptide Y receptor type 1 (Homo sapiens, UniProt P25929); type: functional;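 note: HEK293 cells with a CNG channel challenged with NPY then isoproterenol; potency as antagonist that reverses NPY suppression of cAMP signal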
[10] = target: Lytic switch protein BZLF1 (Epstein-Barr virus (strain B95-8) (HHV-4) (Human herpesvirus 4), UniProt P03206); test: inhibition of BZLF1 ZTA DNA binding – biochemical, fluorescence polarization, Epstein-Barr virus, 1536-well, counter-screen for EBNA-1 inhibitor project, dose response (AID 2377); design: species or system human gammaherpesvirus 4;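 note: fluorescence polarization of Cy5-labelled ZRE DNA probe bound by purified Zta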
[11] = target: Epstein-Barr nuclear antigen 1 (Epstein-Barr virus (strain B95-8) (HHV-4) (Human herpesvirus 4), UniProt P03211); test: inhibition of EBV nuclear antigen 1 DNA binding – biochemical, fluorescence polarization, 1536-well, dose response (AID 2381); design: species or system human gammaherpesvirus 4;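 note: fluorescence polarization of a Cy5 DNA probe bound by EBNA-1 protein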
[12] = antiviral protection against BTV-induced cell death – arbovirus, BSR cells, confirmation (AID 1250); type: functional;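 note: protection from viral cytopathic effect measured as cell viability by ATP luminescence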
[13] = target: Glucose-6-phosphate 1-dehydrogenase (Homo sapiens, UniProt P11413); test: inhibition of Homo sapiens G6PD, dose series – biochemical, fluorescence, selectivity assay for P. falciparum G6PD inhibitor project, dose response (AID 504792); type: functional
[14] = target: Sphingosine 1-phosphate receptor 3 (Homo sapiens, UniProt Q99500); test: Dose response cell-based high throughput screening assay for antagonists of the Sphingosine 1-Phosphate Receptor 3 (S1P3). [Related pubchem assays: 1429, 485 ]; type: functional
[15] = target: T1, Probable nicotinate-nucleotide adenylyltransferase (Staphylococcus aureus (strain N315), UniProt P65502); type: functional, Staphylococcus aureus subsp. aureus N315; details: read-out: IC50_Mean;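 for IC50 Mean: confirmatory dose-response retesting of NadD inhibitor hits first found in an ultra-high-throughput screen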
Paired box protein Pax-8 = Paired box protein Pax-8 (Homo sapiens, UniProt Q06710); test: PAX8 transcriptional activity inhibition in RMG-I – RMG-I cells, luciferase, cherry-pick, dose response (AID 687027); type: functional, cell-based;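 note: luciferase reporter driven by Pax8 target thyroperoxidase promoter measured by SteadyGlo luminescence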
[16] = target: T1, Probable nicotinate-nucleotide adenylyltransferase; type: functional, Staphylococcus aureus subsp. aureus N315
[17] = target: 5-hydroxytryptamine receptor 1E (Homo sapiens, UniProt P28566); test: Counterscreen assay for S1P3 antagonists: Dose response cell-based high throughput screening assay to identify antagonists of the 5-Hydroxytryptamine Receptor Subtype 1E (5HT1E). [Related pubchem assays: 1429, 485 ]; type: functional
Sequence of 5-hydroxytryptamine receptor 1E (P28566 whole entry): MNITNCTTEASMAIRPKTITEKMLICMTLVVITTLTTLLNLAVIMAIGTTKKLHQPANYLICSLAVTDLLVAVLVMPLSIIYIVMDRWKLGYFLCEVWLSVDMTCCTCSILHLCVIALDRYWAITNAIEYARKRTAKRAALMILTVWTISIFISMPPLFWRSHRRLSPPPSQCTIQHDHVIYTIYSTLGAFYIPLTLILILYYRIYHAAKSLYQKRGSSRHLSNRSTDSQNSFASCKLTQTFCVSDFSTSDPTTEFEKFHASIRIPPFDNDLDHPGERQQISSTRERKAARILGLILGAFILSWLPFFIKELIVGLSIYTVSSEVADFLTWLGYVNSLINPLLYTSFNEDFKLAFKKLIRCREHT

T1 sequence (P65502 whole entry): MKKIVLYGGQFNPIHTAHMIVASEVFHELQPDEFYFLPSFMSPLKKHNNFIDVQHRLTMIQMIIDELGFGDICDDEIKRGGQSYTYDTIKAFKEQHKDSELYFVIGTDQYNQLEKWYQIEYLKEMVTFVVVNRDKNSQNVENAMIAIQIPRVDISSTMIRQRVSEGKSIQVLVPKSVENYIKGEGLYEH
Sequence of Glucose-6-phosphate 1-dehydrogenase (P11413 whole entry): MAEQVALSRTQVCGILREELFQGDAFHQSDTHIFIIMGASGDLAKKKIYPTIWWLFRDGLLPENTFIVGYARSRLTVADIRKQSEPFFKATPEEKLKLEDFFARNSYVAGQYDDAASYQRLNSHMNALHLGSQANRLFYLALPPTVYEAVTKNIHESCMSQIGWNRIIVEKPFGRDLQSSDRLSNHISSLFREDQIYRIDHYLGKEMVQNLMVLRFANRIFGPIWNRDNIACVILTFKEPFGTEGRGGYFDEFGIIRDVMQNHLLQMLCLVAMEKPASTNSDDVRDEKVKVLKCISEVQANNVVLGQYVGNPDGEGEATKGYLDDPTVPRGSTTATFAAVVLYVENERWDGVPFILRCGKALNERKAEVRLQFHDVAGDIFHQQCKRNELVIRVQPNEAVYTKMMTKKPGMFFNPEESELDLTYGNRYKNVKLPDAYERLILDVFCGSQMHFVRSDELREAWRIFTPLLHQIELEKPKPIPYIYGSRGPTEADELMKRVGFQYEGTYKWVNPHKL
Sequence of Interleukin-8 (P10145 whole entry): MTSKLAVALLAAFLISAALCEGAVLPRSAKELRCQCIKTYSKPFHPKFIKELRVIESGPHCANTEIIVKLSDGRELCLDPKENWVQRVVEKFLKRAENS
Sequence of Paired box protein Pax-8 (Q06710 whole entry): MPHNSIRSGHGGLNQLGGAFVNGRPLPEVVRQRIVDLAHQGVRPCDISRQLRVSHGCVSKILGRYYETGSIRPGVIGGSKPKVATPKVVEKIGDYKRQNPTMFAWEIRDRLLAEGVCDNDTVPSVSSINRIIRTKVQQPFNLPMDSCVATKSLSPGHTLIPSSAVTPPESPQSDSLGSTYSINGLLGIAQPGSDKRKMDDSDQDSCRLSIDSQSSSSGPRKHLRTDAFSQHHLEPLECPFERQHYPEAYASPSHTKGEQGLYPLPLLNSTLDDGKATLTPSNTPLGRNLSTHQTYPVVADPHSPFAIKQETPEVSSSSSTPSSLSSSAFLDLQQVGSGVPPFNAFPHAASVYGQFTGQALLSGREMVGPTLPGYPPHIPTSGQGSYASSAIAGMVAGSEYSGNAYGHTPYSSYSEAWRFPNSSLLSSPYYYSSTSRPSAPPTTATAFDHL
Sequence of Neuropeptide Y receptor type 1 (P25929 whole entry): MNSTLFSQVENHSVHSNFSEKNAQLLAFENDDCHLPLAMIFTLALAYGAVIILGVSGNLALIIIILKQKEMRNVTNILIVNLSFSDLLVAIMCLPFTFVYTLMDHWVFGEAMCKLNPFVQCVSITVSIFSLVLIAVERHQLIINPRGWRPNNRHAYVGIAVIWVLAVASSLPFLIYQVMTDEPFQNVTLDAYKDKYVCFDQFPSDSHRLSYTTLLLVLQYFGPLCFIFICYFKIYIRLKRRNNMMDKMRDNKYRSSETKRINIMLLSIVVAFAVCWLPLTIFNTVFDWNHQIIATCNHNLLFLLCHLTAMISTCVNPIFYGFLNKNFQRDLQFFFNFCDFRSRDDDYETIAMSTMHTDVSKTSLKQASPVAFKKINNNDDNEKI
Sequence of Tumor necrosis factor (P01375 whole entry): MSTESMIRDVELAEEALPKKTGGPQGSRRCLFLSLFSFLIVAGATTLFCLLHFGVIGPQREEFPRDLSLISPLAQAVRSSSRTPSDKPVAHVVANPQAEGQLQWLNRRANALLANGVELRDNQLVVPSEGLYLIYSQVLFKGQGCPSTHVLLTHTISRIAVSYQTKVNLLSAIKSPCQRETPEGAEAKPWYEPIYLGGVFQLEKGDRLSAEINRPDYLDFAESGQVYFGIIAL
Sequence of Neuropeptide Y receptor type 2 (P49146 whole entry): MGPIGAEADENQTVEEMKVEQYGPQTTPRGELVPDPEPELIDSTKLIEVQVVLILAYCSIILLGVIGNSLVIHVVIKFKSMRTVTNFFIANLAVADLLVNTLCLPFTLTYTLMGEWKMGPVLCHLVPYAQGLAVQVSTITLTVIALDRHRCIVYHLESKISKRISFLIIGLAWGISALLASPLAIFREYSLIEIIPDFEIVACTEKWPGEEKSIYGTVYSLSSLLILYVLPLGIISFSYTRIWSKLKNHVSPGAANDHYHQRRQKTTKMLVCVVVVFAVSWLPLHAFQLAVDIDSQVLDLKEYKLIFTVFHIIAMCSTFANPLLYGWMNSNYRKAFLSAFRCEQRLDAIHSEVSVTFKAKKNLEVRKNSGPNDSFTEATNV
Sequence of Sphingosine 1-phosphate receptor 3 (Q99500 whole entry): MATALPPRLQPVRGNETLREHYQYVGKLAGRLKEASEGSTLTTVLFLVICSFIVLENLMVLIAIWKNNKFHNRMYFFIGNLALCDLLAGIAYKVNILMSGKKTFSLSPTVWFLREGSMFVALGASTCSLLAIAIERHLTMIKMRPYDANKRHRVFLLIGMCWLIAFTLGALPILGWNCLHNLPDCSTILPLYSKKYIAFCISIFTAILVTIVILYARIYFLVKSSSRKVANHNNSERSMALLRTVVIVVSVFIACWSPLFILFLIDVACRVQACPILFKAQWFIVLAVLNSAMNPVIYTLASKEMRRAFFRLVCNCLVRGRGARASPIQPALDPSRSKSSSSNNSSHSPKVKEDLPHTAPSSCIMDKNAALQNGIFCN
Sequence of Epstein-Barr nuclear antigen 1 (P03211 whole entry): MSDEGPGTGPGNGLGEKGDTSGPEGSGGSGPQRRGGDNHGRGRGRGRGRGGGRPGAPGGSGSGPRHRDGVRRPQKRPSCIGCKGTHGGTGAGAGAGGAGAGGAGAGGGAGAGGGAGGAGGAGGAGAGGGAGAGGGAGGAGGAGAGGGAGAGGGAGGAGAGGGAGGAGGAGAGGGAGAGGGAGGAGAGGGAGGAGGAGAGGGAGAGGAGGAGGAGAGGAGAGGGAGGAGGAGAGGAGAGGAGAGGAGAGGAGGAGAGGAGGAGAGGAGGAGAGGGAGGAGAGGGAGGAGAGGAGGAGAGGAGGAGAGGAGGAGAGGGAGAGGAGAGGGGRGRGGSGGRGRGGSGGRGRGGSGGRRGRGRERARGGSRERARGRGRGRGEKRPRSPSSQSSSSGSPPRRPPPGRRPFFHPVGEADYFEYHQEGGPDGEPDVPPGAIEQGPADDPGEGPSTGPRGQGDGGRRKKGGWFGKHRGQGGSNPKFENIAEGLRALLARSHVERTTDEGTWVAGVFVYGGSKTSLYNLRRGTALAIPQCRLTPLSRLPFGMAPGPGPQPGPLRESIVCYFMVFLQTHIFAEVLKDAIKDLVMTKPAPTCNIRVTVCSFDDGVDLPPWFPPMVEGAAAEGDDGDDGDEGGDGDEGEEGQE
Sequence of Lytic switch protein BZLF1 (P03206 whole entry): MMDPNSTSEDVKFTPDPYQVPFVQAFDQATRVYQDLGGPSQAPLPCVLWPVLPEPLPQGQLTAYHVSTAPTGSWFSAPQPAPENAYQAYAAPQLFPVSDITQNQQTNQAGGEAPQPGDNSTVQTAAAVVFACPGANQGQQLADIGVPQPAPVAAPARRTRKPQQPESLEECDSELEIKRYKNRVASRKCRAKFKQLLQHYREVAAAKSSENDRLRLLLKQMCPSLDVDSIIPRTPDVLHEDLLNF

In the case of Nc1nc2ccccc2n1S(=O)(=O)c1ccccc1, the IC50 (Tumor necrosis factor) is reported as > 20 µM (inactive), the IC50 (HEK293) is reported as > 20 µM (inactive) and the IC50 (Interleukin-8) is reported as > 5 µM (inactive).

In the case of CN(C)CCCN=C(S)N1CCN(c2nc(-c3ccccc3)cs2)CC1, the IC50 (Vero [1]) is reported as > 20 µM (active), the IC50 [2] is reported as 6.88 µM (active) and the IC50 (Vero [3]) is reported as 17.5 µM (active). The CC50 (Vero [4]) was 25 µM (active), the IC50 (Vero [5]) was > 12.5 µM (active) and the CC50 (Vero [6]) was 15.1 µM (active). The CC50 (Vero [7]) was 13.9 µM (active).

With CCCCOc1ccc(C2=NNC(=O)CC2)cc1 the IC50 [8] was 4.54 µM (active) and the IC50 [9] was 13.6 µM (not active).

In the case of COc1ccc(NC(=O)COc2ccc3c(C)cc(=O)oc3c2)cc1S(=O)(=O)N1CCCCC1, the IC50 [10] is reported as > 111 µM (not active) and the IC50 [11] is reported as 5.29 µM (active).

In the case of Cc1nc2c(C(=O)NCCc3ccccc3Cl)cnn2c(O)c1Cl, the IC50 [12] is reported as 23.9 µM (active).

In the case of Cc1cccc(C2(c3cccc(C)c3)CC2C(=O)Nc2ccc([N+](=O)[O-])cc2O)c1 (stereo unspecified), the IC50 [13] is reported as > 80 µM (inactive), the IC50 [14] is reported as > 50 µM (not active) and the IC50 [15] is reported as 45.4 µM (active). The AC50 (Paired box protein Pax-8) was 7.83 µM (active), the IC50 [16] was 17 µM (active) and the IC50 [17] was 5.46 µM (active).

Reference: ChEMBL document CHEMBL1201862, “PubChem BioAssay data set” (2004)
